The values that follow are results of earlier work, collected in patent US6710051B1, “Screening method” (Klaus Trier APS, priority 1997, dated 2004).

Each structure is given as a SMILES string. Read-outs that look alike come from different tables or passages of the source.

For this data set, the target named is T1, skeletal RyR (Oryctolagus cuniculus, UniProt P11716).
T1 construct: Structure-activity Relationship of Xanthines and Skeletal Muscle Ryanodine Receptor/Ca^2+ Release Channel; from tissue; host or cells: Skeletal muscle
T1 sequence (P11716 whole entry): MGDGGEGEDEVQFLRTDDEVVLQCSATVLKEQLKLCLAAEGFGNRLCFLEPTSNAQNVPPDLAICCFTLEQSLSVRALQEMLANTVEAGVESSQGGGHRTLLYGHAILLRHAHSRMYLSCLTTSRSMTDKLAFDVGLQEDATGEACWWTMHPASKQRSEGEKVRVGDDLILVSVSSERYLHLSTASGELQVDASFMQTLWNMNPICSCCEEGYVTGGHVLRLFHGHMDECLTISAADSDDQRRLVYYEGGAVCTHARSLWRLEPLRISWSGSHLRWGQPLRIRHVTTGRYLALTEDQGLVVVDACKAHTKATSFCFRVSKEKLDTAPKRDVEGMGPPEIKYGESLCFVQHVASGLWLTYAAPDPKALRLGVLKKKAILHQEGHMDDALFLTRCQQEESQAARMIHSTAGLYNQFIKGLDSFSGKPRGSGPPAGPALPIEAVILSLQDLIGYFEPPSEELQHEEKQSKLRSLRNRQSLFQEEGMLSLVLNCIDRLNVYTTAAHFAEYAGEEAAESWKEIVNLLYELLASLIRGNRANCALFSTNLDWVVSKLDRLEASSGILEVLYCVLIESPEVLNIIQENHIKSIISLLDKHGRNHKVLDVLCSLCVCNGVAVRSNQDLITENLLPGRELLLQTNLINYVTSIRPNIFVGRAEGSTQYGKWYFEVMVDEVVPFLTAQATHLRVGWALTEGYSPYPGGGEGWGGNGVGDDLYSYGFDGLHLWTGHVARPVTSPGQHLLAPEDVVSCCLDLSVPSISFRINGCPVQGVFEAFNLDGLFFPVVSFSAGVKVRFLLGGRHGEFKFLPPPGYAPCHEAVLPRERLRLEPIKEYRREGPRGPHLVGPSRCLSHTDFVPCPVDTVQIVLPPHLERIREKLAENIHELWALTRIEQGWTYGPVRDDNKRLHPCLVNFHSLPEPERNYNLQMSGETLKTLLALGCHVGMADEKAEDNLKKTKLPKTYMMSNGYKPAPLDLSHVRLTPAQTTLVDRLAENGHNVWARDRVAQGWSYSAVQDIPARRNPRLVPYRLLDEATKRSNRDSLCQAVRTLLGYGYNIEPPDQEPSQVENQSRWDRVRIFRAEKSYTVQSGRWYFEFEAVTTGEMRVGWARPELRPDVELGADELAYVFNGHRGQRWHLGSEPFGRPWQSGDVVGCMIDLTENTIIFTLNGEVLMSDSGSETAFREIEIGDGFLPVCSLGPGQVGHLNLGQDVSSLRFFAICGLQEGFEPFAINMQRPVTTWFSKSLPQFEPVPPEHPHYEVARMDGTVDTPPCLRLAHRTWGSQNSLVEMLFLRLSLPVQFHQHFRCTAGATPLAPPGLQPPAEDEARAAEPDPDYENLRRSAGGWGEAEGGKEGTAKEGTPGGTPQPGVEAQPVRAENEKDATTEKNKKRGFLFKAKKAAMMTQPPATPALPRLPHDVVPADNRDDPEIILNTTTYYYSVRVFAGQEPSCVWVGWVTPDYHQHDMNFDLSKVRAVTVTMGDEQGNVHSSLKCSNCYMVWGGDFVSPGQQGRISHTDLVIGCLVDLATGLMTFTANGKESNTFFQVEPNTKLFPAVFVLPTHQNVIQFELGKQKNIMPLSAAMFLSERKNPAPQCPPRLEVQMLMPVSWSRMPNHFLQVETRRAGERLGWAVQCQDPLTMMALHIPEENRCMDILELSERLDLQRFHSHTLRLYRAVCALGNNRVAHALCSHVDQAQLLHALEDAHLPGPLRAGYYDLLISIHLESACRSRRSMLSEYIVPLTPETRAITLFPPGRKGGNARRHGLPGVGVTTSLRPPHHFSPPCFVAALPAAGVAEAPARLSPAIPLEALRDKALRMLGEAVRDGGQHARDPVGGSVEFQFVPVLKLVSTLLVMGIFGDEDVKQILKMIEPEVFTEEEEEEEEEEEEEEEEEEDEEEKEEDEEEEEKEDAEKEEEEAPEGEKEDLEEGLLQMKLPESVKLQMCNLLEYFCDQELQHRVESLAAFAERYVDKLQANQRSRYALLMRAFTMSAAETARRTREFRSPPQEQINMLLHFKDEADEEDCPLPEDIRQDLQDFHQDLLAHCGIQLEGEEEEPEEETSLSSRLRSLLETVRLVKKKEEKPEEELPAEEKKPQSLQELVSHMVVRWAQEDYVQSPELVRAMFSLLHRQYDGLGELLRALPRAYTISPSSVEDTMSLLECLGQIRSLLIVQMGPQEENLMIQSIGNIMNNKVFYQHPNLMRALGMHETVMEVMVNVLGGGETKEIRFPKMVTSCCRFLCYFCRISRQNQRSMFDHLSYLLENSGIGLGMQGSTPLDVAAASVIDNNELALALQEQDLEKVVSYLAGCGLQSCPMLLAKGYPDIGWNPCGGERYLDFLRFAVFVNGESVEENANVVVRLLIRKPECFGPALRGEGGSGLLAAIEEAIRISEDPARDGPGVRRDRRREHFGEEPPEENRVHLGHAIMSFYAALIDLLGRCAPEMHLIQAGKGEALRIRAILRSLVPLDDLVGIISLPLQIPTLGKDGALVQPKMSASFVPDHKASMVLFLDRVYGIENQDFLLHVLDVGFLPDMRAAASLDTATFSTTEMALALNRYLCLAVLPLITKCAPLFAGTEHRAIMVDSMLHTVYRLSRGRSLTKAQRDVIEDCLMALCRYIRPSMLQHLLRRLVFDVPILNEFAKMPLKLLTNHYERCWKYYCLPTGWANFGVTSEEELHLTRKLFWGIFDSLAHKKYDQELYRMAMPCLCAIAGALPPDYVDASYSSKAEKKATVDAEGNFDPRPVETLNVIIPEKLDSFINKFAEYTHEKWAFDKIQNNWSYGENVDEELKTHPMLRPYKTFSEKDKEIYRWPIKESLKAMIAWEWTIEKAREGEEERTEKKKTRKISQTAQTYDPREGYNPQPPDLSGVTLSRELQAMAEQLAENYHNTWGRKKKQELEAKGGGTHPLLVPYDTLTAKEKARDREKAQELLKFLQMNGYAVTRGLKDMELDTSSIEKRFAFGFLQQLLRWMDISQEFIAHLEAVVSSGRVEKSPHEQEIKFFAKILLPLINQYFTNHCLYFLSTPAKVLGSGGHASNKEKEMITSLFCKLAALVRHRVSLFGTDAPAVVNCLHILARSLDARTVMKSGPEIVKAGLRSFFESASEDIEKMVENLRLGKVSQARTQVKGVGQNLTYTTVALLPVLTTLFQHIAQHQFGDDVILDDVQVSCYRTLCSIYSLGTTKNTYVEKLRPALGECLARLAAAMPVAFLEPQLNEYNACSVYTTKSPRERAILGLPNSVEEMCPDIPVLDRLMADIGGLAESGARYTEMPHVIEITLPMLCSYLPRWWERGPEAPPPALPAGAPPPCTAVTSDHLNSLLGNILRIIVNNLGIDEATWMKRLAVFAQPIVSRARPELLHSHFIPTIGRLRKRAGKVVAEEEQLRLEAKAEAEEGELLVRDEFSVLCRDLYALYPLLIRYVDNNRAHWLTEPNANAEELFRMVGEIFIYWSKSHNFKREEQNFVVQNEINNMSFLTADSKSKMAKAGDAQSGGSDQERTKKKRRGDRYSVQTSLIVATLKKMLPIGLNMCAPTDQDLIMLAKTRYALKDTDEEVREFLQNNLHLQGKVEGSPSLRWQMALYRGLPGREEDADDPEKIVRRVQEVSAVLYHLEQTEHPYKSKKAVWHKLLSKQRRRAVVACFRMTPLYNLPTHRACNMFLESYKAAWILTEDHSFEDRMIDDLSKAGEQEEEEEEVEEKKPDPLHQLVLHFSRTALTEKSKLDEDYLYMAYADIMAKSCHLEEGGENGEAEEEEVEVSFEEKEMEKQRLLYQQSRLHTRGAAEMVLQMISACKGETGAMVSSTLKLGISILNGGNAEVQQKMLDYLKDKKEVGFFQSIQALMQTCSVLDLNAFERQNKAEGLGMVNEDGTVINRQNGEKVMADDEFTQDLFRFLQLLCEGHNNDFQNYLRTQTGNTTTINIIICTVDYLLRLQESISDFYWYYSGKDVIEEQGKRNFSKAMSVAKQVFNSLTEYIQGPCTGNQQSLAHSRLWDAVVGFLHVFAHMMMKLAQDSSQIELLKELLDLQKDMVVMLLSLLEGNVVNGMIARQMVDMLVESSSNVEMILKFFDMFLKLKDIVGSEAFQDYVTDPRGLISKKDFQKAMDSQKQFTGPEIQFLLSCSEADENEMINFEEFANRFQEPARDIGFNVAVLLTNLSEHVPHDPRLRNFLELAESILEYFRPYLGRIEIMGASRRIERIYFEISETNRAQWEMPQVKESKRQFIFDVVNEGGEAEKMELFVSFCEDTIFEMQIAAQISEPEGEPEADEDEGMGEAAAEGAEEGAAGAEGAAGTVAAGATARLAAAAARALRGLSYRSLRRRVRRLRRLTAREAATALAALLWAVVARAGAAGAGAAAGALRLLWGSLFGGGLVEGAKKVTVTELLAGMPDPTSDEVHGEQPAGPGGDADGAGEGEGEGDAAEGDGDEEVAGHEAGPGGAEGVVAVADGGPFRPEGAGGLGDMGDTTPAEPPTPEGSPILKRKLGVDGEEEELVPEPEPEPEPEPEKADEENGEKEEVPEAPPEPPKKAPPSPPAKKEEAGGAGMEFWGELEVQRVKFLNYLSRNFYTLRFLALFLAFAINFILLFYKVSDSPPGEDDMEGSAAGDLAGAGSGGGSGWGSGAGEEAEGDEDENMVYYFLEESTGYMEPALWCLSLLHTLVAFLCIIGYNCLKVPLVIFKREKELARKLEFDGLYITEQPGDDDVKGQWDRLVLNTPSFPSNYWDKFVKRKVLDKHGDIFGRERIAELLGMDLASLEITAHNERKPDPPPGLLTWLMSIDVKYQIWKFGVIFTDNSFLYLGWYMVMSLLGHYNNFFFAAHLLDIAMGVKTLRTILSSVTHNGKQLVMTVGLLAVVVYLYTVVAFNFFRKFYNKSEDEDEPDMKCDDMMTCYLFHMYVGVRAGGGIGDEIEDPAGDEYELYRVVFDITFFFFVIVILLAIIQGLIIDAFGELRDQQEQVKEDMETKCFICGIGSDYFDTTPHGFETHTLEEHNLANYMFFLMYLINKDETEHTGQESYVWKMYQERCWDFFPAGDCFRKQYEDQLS
The note with it: cited from earlier work; for Bound [3H]ryanodine % of control / Bound [3H]ryanodine pmol/mg protein / Bound [3H]ryanodine, % of control, +1 mmol/l AMPPCP / Bound [3H]ryanodine, % of control, +3 mmol/l AMP: xanthine […]; for Bound [3H]ryanodine % of control / Bound [3H]ryanodine pmol/mg protein: 1 mmol/l AMPPCP; for Bound [3H]ryanodine pmol/mg protein: means±SD of 3-4 experiments; for effect on the [3H] ryanodine binding compared to the control xanthine: Table 3.

[1] abbreviates: control 3,7-dimethylxanthine = 100.
Where [2] appears, read: control 1,3-dimethylxanthine = 100.

With `CC(=O)CCCCn1c(=O)c2c(ncn2C)n(C)c1=O` [1-(5-Oxohexyl)-3,7-dimethylxanthine], the “Bound [3H]ryanodine pmol/mg protein” value was 3.18 ± 0.08 pmol/mg protein. The “Bound [3H]ryanodine % of control” value under setting [1] is 118 ± 3 % of control. Under “control (-xanthine) = 100”, the “Bound [3H]ryanodine, % of control, +1 mmol/l AMPPCP” value is listed as 188 ± 5 % of control and the “Bound [3H]ryanodine, % of control, +3 mmol/l AMP” value is on record as 185 ± 25 % of control.

For `CCCCCCn1c(=O)c2c(ncn2C)n(C)c1=O` [1-Hexyl-3,7-dimethylxanthine], the “effect on the [3H] ryanodine binding compared to the control xanthine” value is on record as “more than 200%” and the “Bound [3H]ryanodine pmol/mg protein” value was 6.99 ± 0.80 pmol/mg protein. For the same compound, the “Bound [3H]ryanodine % of control” value under setting [1] is 259 ± 24 % of control. For the same compound, where the note is “control (-xanthine) = 100”, the “Bound [3H]ryanodine, % of control, +1 mmol/l AMPPCP” value is 414 ± 47 % of control and the “Bound [3H]ryanodine, % of control, +3 mmol/l AMP” value is recorded as 449 ± 28 % of control.

For the compound `Cn1c(=O)c2c(ncn2CC(O)CO)n(C)c1=O` (stereo not drawn) [7-(2,3-Dihydroxypropyl)-1,3-dimethylxanthine], the “Bound [3H]ryanodine pmol/mg protein” value is listed as 1.97 ± 0.16 pmol/mg protein. The “Bound [3H]ryanodine % of control” value under setting [2] is reported as 69 ± 6 % of control. Also, under “control (-xanthine) = 100”, the “Bound [3H]ryanodine, % of control, +1 mmol/l AMPPCP” value is given as 117 ± 9 % of control and the “Bound [3H]ryanodine, % of control, +3 mmol/l AMP” value was 123 ± 16 % of control.

As to `Cn1c(=O)c2[nH]c(Cl)nc2n(C)c1=O` [8-Chloro-1,3-dimethylxanthine], the “Bound [3H]ryanodine pmol/mg protein” value was 1.96 ± 0.13 pmol/mg protein. Moreover, under setting [2], the “Bound [3H]ryanodine % of control” value is 68 ± 4 % of control. Where the note is “control (-xanthine) = 100”, the “Bound [3H]ryanodine, % of control, +1 mmol/l AMPPCP” value is 116 ± 17 % of control and the “Bound [3H]ryanodine, % of control, +3 mmol/l AMP” value is 108 ± 14 % of control.

As to `CN1CN(C)c2c1[nH]c(=O)[nH]c2=O` [7,9-Dimethylxanthine], the “Bound [3H]ryanodine pmol/mg protein” value is listed as 1.73 ± 0.22 pmol/mg protein. In addition, for the setting “control (-xanthine) = 100”, the “Bound [3H]ryanodine % of control” value is 102 ± 13 % of control; the “Bound [3H]ryanodine, % of control, +1 mmol/l AMPPCP” value is 102 ± 13 % of control; the “Bound [3H]ryanodine, % of control, +3 mmol/l AMP” value was 100 ± 15 % of control.

On to `Cn1c(=O)[nH]c(=O)c2[nH]cnc21` [3-Methylxanthine], for which the “Bound [3H]ryanodine pmol/mg protein” value is 2.26 ± 0.15 pmol/mg protein. Besides, for the setting “control (-xanthine) = 100”, the “Bound [3H]ryanodine % of control” value is listed as 134 ± 9 % of control; the “Bound [3H]ryanodine, % of control, +1 mmol/l AMPPCP” value is 134 ± 9 % of control; the “Bound [3H]ryanodine, % of control, +3 mmol/l AMP” value is 137 ± 10 % of control.

For `Cn1c(=O)[nH]c2c(ncn2C)c1=O` [1,9-Dimethylxanthine], the “effect on the [3H] ryanodine binding compared to the control xanthine” value is on record as “less than 110%” and the “Bound [3H]ryanodine pmol/mg protein” value was 1.42 ± 0.23 pmol/mg protein. In addition, under “control (-xanthine) = 100”, the “Bound [3H]ryanodine % of control” value is on record as 84 ± 14 % of control; the “Bound [3H]ryanodine, % of control, +1 mmol/l AMPPCP” value is 84 ± 14 % of control; the “Bound [3H]ryanodine, % of control, +3 mmol/l AMP” value is given as 86 ± 18 % of control.

In the case of `Cn1c(=O)c2[nH]c(CCC(=O)O)nc2n(C)c1=O` [8-Propionic acid 1,3-dimethylxanthine], the “Bound [3H]ryanodine pmol/mg protein” value was 1.73 ± 0.09 pmol/mg protein. Moreover, the “Bound [3H]ryanodine % of control” value under setting [2] is given as 60 ± 3 % of control. Where the note is “control (-xanthine) = 100”, the “Bound [3H]ryanodine, % of control, +1 mmol/l AMPPCP” value was 102 ± 5 % of control and the “Bound [3H]ryanodine, % of control, +3 mmol/l AMP” value is on record as 100 ± 11 % of control.

For `Cc1nc2[nH]c(=O)[nH]c(=O)c2[nH]1` [8-Methylxanthine], the “Bound [3H]ryanodine pmol/mg protein” value is on record as 1.61 ± 0.33 pmol/mg protein. In addition, under “control (-xanthine) = 100”, the “Bound [3H]ryanodine % of control” value was 95 ± 20 % of control; the “Bound [3H]ryanodine, % of control, +1 mmol/l AMPPCP” value was 95 ± 20 % of control; the “Bound [3H]ryanodine, % of control, +3 mmol/l AMP” value is 90 ± 11 % of control.

As for `Cn1c(=O)[nH]c2nc[nH]c2c1=O` [1-Methylxanthine], the “Bound [3H]ryanodine pmol/mg protein” value was 3.02 ± 0.38 pmol/mg protein. Besides, where the note is “control (-xanthine) = 100”, the “Bound [3H]ryanodine % of control” value was 179 ± 22 % of control; the “Bound [3H]ryanodine, % of control, +1 mmol/l AMPPCP” value is on record as 179 ± 22 % of control; the “Bound [3H]ryanodine, % of control, +3 mmol/l AMP” value is 167 ± 16 % of control.

With `Cn1c(=O)c2ncn(C)c2n(C)c1=O` [1,3,9-Trimethylxanthine], the “Bound [3H]ryanodine pmol/mg protein” value is 1.77 ± 0.12 pmol/mg protein. Besides, for the setting “control (-xanthine) = 100”, the “Bound [3H]ryanodine, % of control, +1 mmol/l AMPPCP” value is reported as 105 ± 7 % of control and the “Bound [3H]ryanodine, % of control, +3 mmol/l AMP” value is given as 103 ± 15 % of control.

For the compound `CCCn1cnc2c(=O)[nH]c(=O)[nH]c21` [9-Propylxanthine], the “Bound [3H]ryanodine pmol/mg protein” value is on record as 1.62 ± 0.20 pmol/mg protein. Also, where the note is “control (-xanthine) = 100”, the “Bound [3H]ryanodine % of control” value is recorded as 96 ± 12 % of control; the “Bound [3H]ryanodine, % of control, +1 mmol/l AMPPCP” value was 96 ± 12 % of control; the “Bound [3H]ryanodine, % of control, +3 mmol/l AMP” value is on record as 97 ± 23 % of control.

As to `CC(C)Cn1c(=O)n(C)c(=O)c2[nH]cnc21` [3-Isobutyl-1-methylxanthine], the “Bound [3H]ryanodine pmol/mg protein” value is given as 2.96 ± 0.33 pmol/mg protein. Where the note is “control (-xanthine) = 100”, the “Bound [3H]ryanodine % of control” value was 175 ± 20 % of control; the “Bound [3H]ryanodine, % of control, +1 mmol/l AMPPCP” value is reported as 175 ± 20 % of control; the “Bound [3H]ryanodine, % of control, +3 mmol/l AMP” value was 139 ± 11 % of control.

For `Cn1c(=O)c2[nH]c(C3CCCC3)nc2n(C)c1=O` [8-Cyclopentyl-1,3-dimethylxanthine], the “Bound [3H]ryanodine pmol/mg protein” value is listed as 2.25 ± 0.28 pmol/mg protein. Besides, the “Bound [3H]ryanodine % of control” value under setting [2] was 78 ± 8 % of control. For the setting “control (-xanthine) = 100”, the “Bound [3H]ryanodine, % of control, +1 mmol/l AMPPCP” value was 133 ± 6 % of control and the “Bound [3H]ryanodine, % of control, +3 mmol/l AMP” value is 142 ± 14 % of control.

As to `Cn1c(=O)c2c(ncn2CCCl)n(C)c1=O` [7β-Chloroethyl-1,3-dimethylxanthine], the “Bound [3H]ryanodine pmol/mg protein” value is reported as 3.88 ± 0.16 pmol/mg protein. Further, the “Bound [3H]ryanodine % of control” value under setting [2] is on record as 135 ± 6 % of control. Where the note is “control (-xanthine) = 100”, the “Bound [3H]ryanodine, % of control, +1 mmol/l AMPPCP” value was 230 ± 9 % of control and the “Bound [3H]ryanodine, % of control, +3 mmol/l AMP” value was 256 ± 34 % of control.

On to `CCCn1cnc2[nH]c(=O)[nH]c(=O)c21` [7-Propylxanthine], for which the “Bound [3H]ryanodine pmol/mg protein” value was 4.57 ± 0.20 pmol/mg protein. Under “control (-xanthine) = 100”, the “Bound [3H]ryanodine % of control” value was 270 ± 12 % of control; the “Bound [3H]ryanodine, % of control, +1 mmol/l AMPPCP” value was 270 ± 12 % of control; the “Bound [3H]ryanodine, % of control, +3 mmol/l AMP” value was 234 ± 14 % of control.

On to `CCCn1c(=O)c2c(ncn2C)n(CCC)c1=O` [1,3-Dipropyl-7-methylxanthine], for which the “Bound [3H]ryanodine pmol/mg protein” value was 4.96 ± 0.39 pmol/mg protein. Also, where the note is “control (-xanthine) = 100”, the “Bound [3H]ryanodine, % of control, +1 mmol/l AMPPCP” value is 295 ± 23 % of control and the “Bound [3H]ryanodine, % of control, +3 mmol/l AMP” value was 326 ± 30 % of control.

For the compound `Cn1c(=O)c2c(ncn2CCO)n(C)c1=O` [7β-Hydroxyethyl-1,3-dimethylxanthine], the “Bound [3H]ryanodine pmol/mg protein” value is 2.10 ± 0.26 pmol/mg protein. The “Bound [3H]ryanodine % of control” value under setting [2] was 73 ± 4 % of control. For the same compound, where the note is “control (-xanthine) = 100”, the “Bound [3H]ryanodine, % of control, +1 mmol/l AMPPCP” value is given as 124 ± 15 % of control and the “Bound [3H]ryanodine, % of control, +3 mmol/l AMP” value is given as 134 ± 15 % of control.

`Cn1cnc2c(=O)[nH]c(=O)n(C)c21` [3,9-Dimethylxanthine]: the “Bound [3H]ryanodine pmol/mg protein” value is given as 2.42 ± 0.34 pmol/mg protein. For the setting “control (-xanthine) = 100”, the “Bound [3H]ryanodine % of control” value was 143 ± 20 % of control; the “Bound [3H]ryanodine, % of control, +1 mmol/l AMPPCP” value is given as 143 ± 20 % of control; the “Bound [3H]ryanodine, % of control, +3 mmol/l AMP” value is 141 ± 11 % of control.

Consider `Cn1c(=O)[nH]c2ncn(C)c2c1=O` [1,7-Dimethylxanthine], for which the “Bound [3H]ryanodine pmol/mg protein” value was 6.08 ± 0.47 pmol/mg protein. Further, for the setting “control (-xanthine) = 100”, the “Bound [3H]ryanodine % of control” value is given as 360 ± 28 % of control; the “Bound [3H]ryanodine, % of control, +1 mmol/l AMPPCP” value is reported as 360 ± 28 % of control; the “Bound [3H]ryanodine, % of control, +3 mmol/l AMP” value is 378 ± 34 % of control.

For `Cn1c(=O)c2[nH]c(-c3ccc(S(=O)(=O)O)cc3)nc2n(C)c1=O` [8-(p-Sulfophenyl)-1,3-dimethylxanthine], the “Bound [3H]ryanodine pmol/mg protein” value is reported as 1.55 ± 0.28 pmol/mg protein. Moreover, the “Bound [3H]ryanodine % of control” value under setting [2] is 54 ± 6 % of control. In addition, where the note is “control (-xanthine) = 100”, the “Bound [3H]ryanodine, % of control, +1 mmol/l AMPPCP” value is reported as 92 ± 17 % of control and the “Bound [3H]ryanodine, % of control, +3 mmol/l AMP” value is 91 ± 16 % of control.

`C#CCn1c(=O)c2c(ncn2C)n(C)c1=O` [3,7-Dimethyl-1-propargylxanthine]: the “Bound [3H]ryanodine pmol/mg protein” value was 3.88 ± 0.10 pmol/mg protein. Moreover, the “Bound [3H]ryanodine % of control” value under setting [1] was 144 ± 3 % of control. In addition, for the setting “control (-xanthine) = 100”, the “Bound [3H]ryanodine, % of control, +1 mmol/l AMPPCP” value is listed as 230 ± 6 % of control and the “Bound [3H]ryanodine, % of control, +3 mmol/l AMP” value was 201 ± 33 % of control.

As to `Cn1c(=O)c2[nH]c(-c3ccccc3)nc2n(C)c1=O` [8-Phenyl-1,3-dimethylxanthine], the “Bound [3H]ryanodine pmol/mg protein” value was 1.67 ± 0.31 pmol/mg protein. Under setting [2], the “Bound [3H]ryanodine % of control” value was 58 ± 9 % of control. Besides, under “control (-xanthine) = 100”, the “Bound [3H]ryanodine, % of control, +1 mmol/l AMPPCP” value was 99 ± 18 % of control and the “Bound [3H]ryanodine, % of control, +3 mmol/l AMP” value is 103 ± 14 % of control.

For the compound `CCCn1c(=O)[nH]c(=O)c2[nH]cnc21` [3-Propylxanthine], the “Bound [3H]ryanodine pmol/mg protein” value is recorded as 3.82 ± 0.23 pmol/mg protein. Further, where the note is “control (-xanthine) = 100”, the “Bound [3H]ryanodine % of control” value is 226 ± 14 % of control; the “Bound [3H]ryanodine, % of control, +1 mmol/l AMPPCP” value is recorded as 226 ± 14 % of control; the “Bound [3H]ryanodine, % of control, +3 mmol/l AMP” value is reported as 203 ± 14 % of control.
